What was measured:
Erysiphe cichoracearum = assay: Powdery mildew of cucumber, systemic root uptake (CMS); assay type: in vivo; conditions: 45 ml of 250 mg/l, 8 days after inoculation
Description: Compositions containing Compounds Nos. 1-81 were prepared by dissolving 0.24 grams of each of the compounds in 8 ml of acetone or other suitable inert solvent. Each of the resultant solutions was treated with 3 drops of TWEEN 20 (ethoxylated ethylene sorbitan monolaurate, a non-ionic surfactant)(I.C.I.), and water was added to form an emulsion. The degree of dilution with water was dictated by the desired concentration of the compound in the composition. The greater the quantity of water added, the lower the concentration of the compound in the composition, reported in milligrams per liter (mg/l) […] Upon reaching these ages, the plants were either treated with 45 ml of 250 mg/l concentration of the compositions of Example 9 or were left untreated. The untreated plants were used as controls. The 45 ml compositions saturated the soil of the treated pots without significant loss through drainage into the saucers below the pots. Twenty-four hours after the treatment with the compositions, both the barley and cucumber plants in all the pots, those treated and those untreated, were inoculated with powdery mildew fungus. This was accomplished by tapping leaves of previously infected barley and cucumber plants over the treated and untreated pots containing the barley and cucumber plants, respectively, to distribute spores of the fungus over the plants tested. […] Intermediate ratings were assigned depending on the degree of disease. […] The results of the powdery mildew disease control of barley are reported under the heading of "BMS". The results for cucumber mildew control are reported under the heading "CMS".

Colletotrichum gossypii = assay: Fungal growth inhibition, treated disc on agar (COL GOS); assay type: cell-based; conditions: disc dipped in 500 mg/l, 29° C.; for inhibition at 500 µg/mL: Colletotrichum gossypii, read-out: Percent Growth Inhibition, COL GOS
Septoria nodorum = assay: Fungal growth inhibition, treated disc on agar (SEP NOD); assay type: cell-based; conditions: disc dipped in 500 mg/l, 29° C.; for inhibition at 500 µg/mL: Parastagonospora nodorum, read-out: Percent Growth Inhibition, SEP NOD
Erysiphe polygoni = assay: Powdery mildew on pinto bean, foliar application (ERY POL); assay type: in vivo; conditions: similar procedure as barley (1,000 mg/l); for pest or weed control at 1000 µg/mL: Erysiphe polygoni, read-out: Percent Reduction of Disease, ERY POL
Description: Compositions containing Compounds Nos. 1-81 were prepared by dissolving 0.24 grams of each of the compounds in 8 ml of acetone or other suitable inert solvent. Each of the resultant solutions was treated with 3 drops of TWEEN 20 (ethoxylated ethylene sorbitan monolaurate, a non-ionic surfactant)(I.C.I.), and water was added to form an emulsion. The degree of dilution with water was dictated by the desired concentration of the compound in the composition. The greater the quantity of water added, the lower the concentration of the compound in the composition, reported in milligrams per liter (mg/l) Ten plants of "Robust" variety barley were planted in each of a plurality of pots. Each pot was then either sprayed with one of the compositions of Example 9, at a composition concentration of 1,000 mg/l, or left unsprayed. For each pot sprayed, one pot was left unsprayed as a control. After the leaves of the sprayed pots were dried, the sprayed pots and the unsprayed control pots were placed in a greenhouse maintained at 21° C. All the pots were then inoculated with barley powdery mildew fungus, Erysiphe graminis. This inoculation was accomplished by distributing spores of the fungus over the leaves of the plants to be tested from plants which had previously been infected with the mildew disease. […] Again, percent control was computed by comparing the treatment scores with the scores of the untreated controls. The results are summarized in Table II under the heading "ERY GRA". Using a similar procedure as described above for the barley, pinto bean plants were prepared, treated and inoculated with the fungus Erysiphe polygoni. The results of this testing are summarized in Table II under the heading "ERY POL".

Botrytis cinerea = assay: Fungal growth inhibition, treated disc on agar (BOT CIN); assay type: cell-based; conditions: disc dipped in 500 mg/l, 29° C.; for inhibition at 500 µg/mL: Botrytis cinerea, read-out: Percent Growth Inhibition, BOT CIN
Description: The treated and untreated discs were then placed on agar plates and one of the following fungus species: Septoria nodorum (SEP NOD), Botrytis cinerea (BOT CIN), Fusarium oxysporum (FUS OXY), Pythium ultimum (PYT ULT), Rhizoctonia solani (RHI SOL), Colletotrichum gossypii (COL GOS), and Scierotinia minor (SCL MIN), was added to the center of each disc in the form of a culture plug with the fungus mat in contact with the paper of the test disc. Cercosporidium personatum (CER PER), was added to discs as a spore suspension (20,000 spores/ml) to the disc (two drops of spore suspension per disc), rather than a mycelial culture plug. The plates were then incubated at 29° C. in an oven.
With the exception of the discs containing Cercosporidium personatum, the discs were evaluated by first measuring the radius from the center of the fungus colony on the treated discs and on the untreated discs. Percent growth inhibition of each of the compounds tested was determined as a function of the difference between the radius of the fungus colony on the treated disc versus the radius of the fungus colony on the untreated disc.

[1] = system: Cercosporidium personatum; assay: Fungal germination and growth, treated disc on agar, scored (CER PER); assay type: cell-based; parameters: key: 100: Complete inhibition of germination and growth.; 80: Nearly complete inhibition but some growth.; 50: Partial inhibition of growth or, early complete inhibition but later growth begins.; 20: Some inhibition of growth, but not significant.; 0: No inhibition of growth; conditions: disc dipped in 500 mg/l, 29° C., numerical score 0-100, spore suspension
Excerpt: Filter paper discs, each 11 mm. in diameter, were dipped in each of the test solutions. The discs were allowed to air dry to drive off the acetone solvent. A number of untreated discs were used as controls. The treated and untreated discs were then placed on agar plates and one of the following fungus species: Septoria nodorum (SEP NOD), Botrytis cinerea (BOT CIN), Fusarium oxysporum (FUS OXY), Pythium ultimum ([…]), Rhizoctonia solani (RHI SOL), Colletotrichum gossypii (COL GOS), and Scierotinia minor (SCL MIN), was added to the center of each disc in the form of a culture plug with the fungus mat in contact with the paper of the test disc. Cercosporidium personatum (CER PER), was added to discs as a spore suspension (20,000 spores/ml) to the disc (two drops of spore suspension per disc), rather than a mycelial culture plug. The plates were then incubated at 29° C. in an oven. In the case of the Cercosporidium personatum (CER PER) fungi, scoring was done on a numerical basis as follows: 100=Complete inhibition of germination and growth. 80=Nearly complete inhibition but some growth. 50=Partial inhibition of growth or, early complete inhibition but later growth begins. 20=Some inhibition of growth, but not significant. 0=No inhibition of growth. The results of all the above tests appear in Table III below under the headings "SEP NOD," "BOT CIN," "FUS OXY," "[…]" "COL GOS" and "CER PER".

| SMILES | Percent Reduction of Disease, CMS (Erysiphe cichoracearum) | inhibition at 500 µg/mL (Colletotrichum gossypii) | inhibition at 500 µg/mL (Septoria nodorum) | pest or weed control at 1000 µg/mL (Erysiphe polygoni) | inhibition at 500 µg/mL (Botrytis cinerea) | CER PER inhibition score [1] | Percent Growth Inhibition, COL GOS (Colletotrichum gossypii) | Percent Growth Inhibition, SEP NOD (Septoria nodorum) | Percent Reduction of Disease, ERY POL (Erysiphe polygoni) | Percent Growth Inhibition, BOT CIN (Botrytis cinerea) |
| --- | --- | --- | --- | --- | --- | --- | --- | --- | --- | --- |
| CCCCC(C#N)(CCc1ccccc1)c1ccncc1 (stereo not drawn) [Compound 26] | 0% | 75% | 45% | 17% | 5% | 0 |  |  |  |  |
| C=CCC(C#N)(CCc1ccc(OC)cc1)c1ccccn1 (stereo not drawn) [Compound 28] | 0% |  |  |  |  | 100 | 100% | 96% | 100% | 98% |
| COc1ccc(CCC(C#N)(CC(C)C)c2ccccn2)cc1 (stereo not drawn) [Compound 29] | 0% |  |  |  |  | 100 | 95% | 83% | 100% | 98% |
| CCCCCC(C#N)(CCc1ccc(OC)cc1)c1ccccn1 (stereo not drawn) [Compound 30] | 0% |  |  |  |  | 0 | 80% | 96% | 100% | 88% |
| CCCCC(C#N)(CCc1ccc(OC)cc1)c1ccccn1 (stereo not drawn) [Compound 31] | 0% |  |  |  |  | 0 | 70% | 81% | 90% | 89% |
| N#CC(CCCc1ccc(Cl)cc1)(CC1CC1)c1ccccn1 (stereo not drawn) [Compound 32] | 0% |  |  |  |  | 0 | 97% | 89% | 100% | 96% |
| C=CCC(C#N)(CCc1ccc(C)cc1)c1cccnc1 (stereo not drawn) [Compound 33] | 20% | 100% | 96% | 100% | 98% | 0 |  |  |  |  |
| CCCCC(C#N)(CCc1ccc(C)cc1)c1cccnc1 (stereo not drawn) [Compound 34] | 20% | 100% | 100% | 100% | 100% | 0 |  |  |  |  |
| CCCCC(C#N)(CCc1ccc(OCC)cc1)c1cccnc1 (stereo not drawn) [Compound 35] | 0% | 97% | 90% | 100% | 91% | 0 |  |  |  |  |
| CCCCCCC(C#N)(CCc1ccc(OC)cc1)c1cccnc1 (stereo not drawn) [Compound 36] | 0% | 0% | 96% | 100% | 45% | 0 |  |  |  |  |
| COc1ccc(CCC(C#N)(CC2CC2)c2cccnc2)cc1 (stereo not drawn) [Compound 37] | 0% | 100% | 100% | 92% | 100% | 0 |  |  |  |  |
| C#CCC(C#N)(CCc1ccc(OC)cc1)c1cccnc1 (stereo not drawn) [Compound 38] | 0% | 100% | 100% | 92% | 100% | 0 |  |  |  |  |
| CC(C)CC(C#N)(CCc1ccc(F)cc1)c1cccnc1 (stereo not drawn) [Compound 39] | 0% | 75% | 8% | 92% | 57% | 0 |  |  |  |  |
| C=CCC(C#N)(CCc1ccc(OCC)cc1)c1cccnc1 (stereo not drawn) [Compound 40] | 0% | 100% | 100% | 92% | 100% | 0 |  |  |  |  |
| C#CCC(C#N)(CCc1ccc(F)cc1)c1cccnc1 (stereo not drawn) [Compound 41] | 0% | 100% | 63% | 100% | 32% | 0 |  |  |  |  |
| CCCCC(C#N)(CCc1ccc(OCC)cc1)c1cccnc1.Cl (stereo not drawn) [Compound 42, α-butyl-4-ethoxy-α-(3-pyridinyl)-benzenebutanenitrile hydrochloride] | 0% |  |  |  |  | 0 | 100% | 100% | 100% | 100% |
| CCOc1ccc(CCC(C#N)(CC(C)C)c2cccnc2)cc1 (stereo not drawn) [Compound 43] | 0% | 94% | 100% | 92% | 100% | 100 |  |  |  |  |
| CCCCCCC(C#N)(CCc1ccc(OCC)cc1)c1cccnc1 (stereo not drawn) [Compound 44] | 0% | 100% | 100% | 90% | 43% | 100 |  |  |  |  |
| CCCCCCC(C#N)(CCc1ccc(F)cc1)c1cccnc1 (stereo not drawn) [Compound 45] | 67% | 100% | 100% | 90% | 100% | 100 |  |  |  |  |
| CCCC(C#N)(CCc1ccc(OCC)cc1)c1cccnc1 (stereo not drawn) [Compound 46] | 0% | 100% | 100% | 90% | 100% | 0 |  |  |  |  |
| CC(C)=CCC(C#N)(CCc1ccc(F)cc1)c1cccnc1 (stereo not drawn) [Compound 47] | 0% | 100% | 100% | 90% | 100% | 0 |  |  |  |  |
| COc1ccc(CCC(C#N)(CC=C(C)C)c2cccnc2)cc1 (stereo not drawn) [Compound 48] | 0% | 100% | 100% | 90% | 100% | 50 |  |  |  |  |

Source: US5945436A, “Pyridylmethyl nitriles, amides and thioamides useful as fungicides” (Uniroyal Chemical Company, Inc., priority 1997, dated 1999)
